Measured values as given in patent US20060167104A1, “Method for extracting a novel compound from the root of a plant of the pentadiplandraceae family and use of N,N'-dibenzylthiourea as a medicine” (priority 2002, published 2006).

How the values were obtained:
[1] = Fentom method: degradation of deoxyribose by free radicals from xanthine/xanthine oxidase, malondialdehyde measured by colorimetry; type: biochemical; conditions: in relation to the control containing no free hydroxyl radical trapper
Protocol: We used the Fentom method. This method is based on the degradation of deoxyribose by free radicals generated by the xanthine/xanthine oxidase system. This degradation leads to the formation of malondialdehyde which is measured by colorimetry.
In this technique, the trapping of free hydroxyl radicals is translated into a decrease in the formation of malondialdehyde.
N,N′-dibenzylthiourea in solutions of concentration 20, 10 and 5% decreases the production of malondialdehyde by 65, 59 and 51% respectively in relation to the control containing no free hydroxyl radical trapper.

decrease in the production of malondialdehyde ([1]; solution of concentration 5%): 51% | decrease in the production of malondialdehyde ([1]; solution of concentration 10%): 59% | decrease in the production of malondialdehyde ([1]; solution of concentration 20%): 65%
SMILES: S=C(NCc1ccccc1)NCc1ccccc1 [N,N′-dibenzylthiourea]
toxicity (Toxicity statement): non-toxic
